Results on 15 compounds are retold here after patent publication US20250059205A1, “Heterocyclic Compounds and Methods of Use” (AMGEN INC., priority 2021, published 2025).

Test [1] has as its target His-tagged KRAS G12D protein (Homo sapiens, UniProt P01116, G12D). Nature of the test: KRAS G12D TR-FRET Assay. Format: binding. In general terms: Time-resolved FRET reads energy transfer from a long-lived donor to a nearby acceptor.
Test [2] concerns Phosphorylation of ERK1/2 in AsPC-1 cells. Briefly: Phospho-ERK1/2 MSD Assay (AsPC-1 cells). Format: cell-based. To be noted: Homo sapiens, ASPC1, 2 h, 2 hours treatment, read-out: p-ERK (AsPC-1 cells) IC50. The essentials: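 Read-out: MSD electrochemiluminescent detection of phosphorylated ERK1/2 in whole-cell lysates, fitted to a 4-parameter logistic curve for IC50. Prior to lysis, AsPC-1 cells (25,000 per well) received a 2 h compound dose-response at 37 °C.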

Test [3] addresses GDP-bound KRAS protein (aa 1-169), containing both G12D and C118A amino acid substitutions (Homo sapiens, UniProt P01116, C118A/G12D). Briefly: KRAS G12D Coupled Nucleotide Exchange Assay. Format: biochemical. To be noted: 2 h compound pre-incubation. As for the experimental part:
Following compound pre-incubation, purified SOS protein (aa 564-1049) and GTP (Roche 10106399001) were added to the assay wells and incubated for an additional 30 min. […] The assay plates were then read on a PerkinElmer EnVision Multilabel Reader, using AlphaScreen® technology, and data were analyzed using a 4-parameter logistic model to calculate IC50 values.

Test [4] has as its system Phosphorylation of ERK1/2 in A-427 cells. Briefly: Phospho-ERK1/2 MSD Assay (A-427 cells). Format: cell-based. To be noted: Homo sapiens, A-427, 2 h, 2 h treatment, read-out: p-ERK (A427 cells) IC50. The gist of the method:
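ERK1/2 phosphorylation measured by Meso Scale whole-cell lysate assay after A-427 cells were exposed to a titration of compound for 2 h at 37 °C.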

Chain of GDP-bound KRAS protein (aa 1-169), containing both G12D and C118A amino acid substitutions (P01116 1-169 isoform P01116-2 G12D/C118A): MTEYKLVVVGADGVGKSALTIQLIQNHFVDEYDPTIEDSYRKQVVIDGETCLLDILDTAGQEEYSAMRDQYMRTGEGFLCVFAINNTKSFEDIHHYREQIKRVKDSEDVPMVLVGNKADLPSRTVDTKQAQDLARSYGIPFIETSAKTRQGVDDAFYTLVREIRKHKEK
Chain of His-tagged KRAS G12D protein (P01116 1-188 isoform P01116-2 G12D): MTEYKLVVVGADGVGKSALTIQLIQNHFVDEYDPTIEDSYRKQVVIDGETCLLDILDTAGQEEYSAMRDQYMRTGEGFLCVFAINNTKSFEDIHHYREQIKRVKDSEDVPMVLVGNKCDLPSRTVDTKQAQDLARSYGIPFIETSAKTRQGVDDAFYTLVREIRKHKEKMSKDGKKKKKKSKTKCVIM

As a reminder, the IC50 is the concentration that inhibits the measured activity by half. Take `Cc1cccc(-c2c(F)cc3c(N4C[C@H]5CC[C@@H](C4)N5)nc(OC[C@@]45CCCN4C[C@H](F)C5)nc3c2F)c1C(F)(F)F` [Example 149, 4-((1R,5S)-3,8-diazabicyclo[3.2.1]octan-3-yl)-6,8-difluoro-2-(((2R,7aS)-2-fluorotetrahydro-1H-pyrrolizin-7a(5H)-yl)methoxy)-7-(3-methyl-2-(trifluoromethyl)phenyl)quinazoline]: the half-inhibitory concentration (IC50) in test [1] turned out to be 5 nM; in test [2], 680 nM; in test [4], 939 nM. For the same compound, the “Avg 2 h Coupled Exchange IC50” value in test [3] is 2 nM.
The matching figures for `CCc1c(F)ccc2cc(O)cc(-c3c(F)cc4c(N5[C@@H]6CC[C@H]5CNC6)nc(OC[C@@]56CCCN5C[C@H](F)C6)nc4c3F)c12` [Example 150, 4-(4-((1R,5S)-3,8-diazabicyclo[3.2.1]octan-8-yl)-6,8-difluoro-2-(((2R,7aS)-2-fluorotetrahydro-1H-pyrrolizin-7a(5H)-yl)methoxy)quinazolin-7-yl)-5-ethyl-6-fluoronaphthalen-2-ol]: 3 nM, 94 nM, 30 nM and 3 nM.
The matching figures for `CCc1c(F)ccc2cc(O)cc(-c3c(F)cc4c(N5[C@@H]6CNC[C@H]5COC6)nc(OC[C@@]56CCCN5C[C@H](F)C6)nc4c3F)c12` [Example 151, 4-(4-((1R,5S)-3-oxa-7,9-diazabicyclo[3.3.1]nonan-9-yl)-6,8-difluoro-2-(((2R,7aS)-2-fluorotetrahydro-1H-pyrrolizin-7a(5H)-yl)methoxy)quinazolin-7-yl)-5-ethyl-6-fluoronaphthalen-2-ol]: 4 nM, 123 nM, 65 nM and 3 nM.
Take `CCc1c(F)ccc2cc(O)cc(-c3ccc4c(N5[C@@H]6CNC[C@H]5COC6)nc(OC[C@@]56CCCN5C[C@H](F)C6)nc4c3F)c12` [Example 152, 4-(4-((1R,5S)-3-oxa-7,9-diazabicyclo[3.3.1]nonan-9-yl)-8-fluoro-2-(((2R,7aS)-2-fluorotetrahydro-1H-pyrrolizin-7a(5H)-yl)methoxy)quinazolin-7-yl)-5-ethyl-6-fluoronaphthalen-2-ol]: the values for the half-inhibitory concentration (IC50) in test [1], in test [2] and in test [4] were 5 nM, 76 nM and 73 nM, respectively. For the same compound, in test [3], the “Avg 2 h Coupled Exchange IC50” value is 4 nM.
The matching figures for `CCc1c(F)ccc2cc(O)cc(-c3c(F)cc4c(N5CCC6CCC(C5)N6)nc(OC[C@@]56CCCN5C[C@H](F)C6)nc4c3F)c12` (stereo partly drawn) [Example 153, 4-(4-(3,9-diazabicyclo[4.2.1]nonan-3-yl)-6,8-difluoro-2-(((2R,7aS)-2-fluorotetrahydro-1H-pyrrolizin-7a(5H)-yl)methoxy)quinazolin-7-yl)-5-ethyl-6-fluoronaphthalen-2-ol]: 6 nM, 419 nM, 349 nM and 3 nM.
The matching figures for `CCc1cccc2cc(O)cc(-c3ccc4c(N5CCC6CCC(C5)N6)nc(OC[C@@]56CCCN5C[C@H](F)C6)nc4c3F)c12` (stereo partly drawn) [Example 154, 4-(4-(3,9-diazabicyclo[4.2.1]nonan-3-yl)-8-fluoro-2-(((2R,7aS)-2-fluorotetrahydro-1H-pyrrolizin-7a(5H)-yl)methoxy)quinazolin-7-yl)-5-ethylnaphthalen-2-ol]: 13 nM, 1030 nM, 879 nM and 12 nM.
On the same counts, the results for `Fc1cc2c(N3C[C@H]4CC[C@@H](C3)N4)nc(OC[C@@]34CCCN3C[C@H](F)C4)nc2c(F)c1-c1cccc2ccc(F)c(F)c12` [Example 155, 4-((1R,5S)-3,8-diazabicyclo[3.2.1]octan-3-yl)-7-(7,8-difluoronaphthalen-1-yl)-6,8-difluoro-2-(((2R,7aS)-2-fluorotetrahydro-1H-pyrrolizin-7a(5H)-yl)methoxy) quinazoline] are 5 nM, 667 nM, 639 nM and 3 nM.
Regarding `Fc1c(-c2cccc(Cl)c2C(F)(F)F)ccc2c(N3C[C@H]4CC[C@@H](C3)N4)nc(OC[C@@]34CCCN3C[C@H](F)C4)nc12` [Example 156, 4-((1R,5S)-3,8-diazabicyclo[3.2.1]octan-3-yl)-7-(3-chloro-2-(trifluoromethyl)phenyl)-8-fluoro-2-(((2R,7aS)-2-fluorotetrahydro-1H-pyrrolizin-7a(5H)-yl)methoxy) quinazoline], the concentration for half-maximal inhibition (IC50) in test [1] is 7 nM; in test [2], 881 nM; in test [4], 1180 nM. The “Avg 2 h Coupled Exchange IC50” value in test [3] was 3 nM.
The matching figures for `Oc1cc(-c2c(F)cc3c(N4C[C@@H]5CC[C@H]4CN5)nc(OC[C@@]45CCCN4C[C@H](F)C5)nc3c2F)c2c(F)c(F)ccc2c1` [Example 157, 4-(4-((1S,4S)-2,5-diazabicyclo[2.2.2]octan-2-yl)-6,8-difluoro-2-(((2R,7aS)-2-fluorotetrahydro-1H-pyrrolizin-7a(5H)-yl)methoxy)quinazolin-7-yl)-5,6-difluoronaphthalen-2-ol]: 4 nM, 46 nM, 9 nM and 4 nM.
`CCc1c(F)ccc2cc(O)cc(-c3c(F)cc4c(N5[C@@H]6CC[C@H]5CNC6)nc(OC[C@@H]5C[C@@H](F)CN5C)nc4c3F)c12` [Example 158, 4-(4-((1R,5S)-3,8-diazabicyclo[3.2.1]octan-8-yl)-6,8-difluoro-2-(((2S,4R)-4-fluoro-1-methylpyrrolidin-2-yl)methoxy)quinazolin-7-yl)-5-ethyl-6-fluoronaphthalen-2-ol]: the IC50 turned out to be 7 nM in test [1], 511 nM in test [2] and 228 nM in test [4]. Besides, the “Avg 2 h Coupled Exchange IC50” value in test [3] was found to be 4 nM.
The matching figures for `Oc1cc(-c2c(F)cc3c(N4C[C@H]5CC[C@@H](C4)N5)nc(OC[C@@]45CCCN4C[C@H](F)C5)nc3c2F)c2c(F)cccc2c1` [Example 159, 4-(4-((1R,5S)-3,8-diazabicyclo[3.2.1]octan-3-yl)-6,8-difluoro-2-(((2R,7aS)-2-fluorotetrahydro-1H-pyrrolizin-7a(5H)-yl)methoxy)quinazolin-7-yl)-5-fluoronaphthalen-2-ol]: 3 nM, 77 nM, 13 nM and 5 nM.
The matching figures for `CCc1cccc2cc(O)cc(-c3ccc4c(N5[C@@H]6CC[C@H]5CNC6)nc(OC[C@@]56CCCN5C[C@H](F)C6)nc4c3C)c12` [Example 160, 4-(4-((1R,5S)-3,8-diazabicyclo[3.2.1]octan-8-yl)-2-(((2R,7aS)-2-fluorotetrahydro-1H-pyrrolizin-7a(5H)-yl)methoxy)-8-methylquinazolin-7-yl)-5-ethylnaphthalen-2-ol]: 5 nM, 754 nM, 410 nM and 6 nM.
On the same counts, the results for `CCc1c(F)ccc2cc(O)cc(-c3ccc4c(N5[C@@H]6CC[C@H]5CNC6)nc(OC[C@@]56CCCN5C[C@H](F)C6)nc4c3C)c12` [Example 161, 4-(4-((1R,5S)-3,8-diazabicyclo[3.2.1]octan-8-yl)-2-(((2R,7aS)-2-fluorotetrahydro-1H-pyrrolizin-7a(5H)-yl)methoxy)-8-methylquinazolin-7-yl)-5-ethyl-6-fluoronaphthalen-2-ol] are 75 nM, 9750 nM, 10000 nM and 79 nM.
As for `Cc1ccc2cnn(C)c2c1-c1c(F)cc2c(N3C[C@H]4CC[C@@H](C3)N4)nc(OC[C@@]34CCCN3C[C@H](F)C4)nc2c1F` [Example 164, 4-((1R,5S)-3,8-diazabicyclo[3.2.1]octan-3-yl)-7-(1,6-dimethyl-1H-indazol-7-yl)-6,8-difluoro-2-(((2R,7aS)-2-fluorotetrahydro-1H-pyrrolizin-7a(5H)-yl)methoxy) quinazoline], the results for the IC50 in test [1], in test [2] and in test [4] were 7 nM, 725 nM and 862 nM, respectively. Further, the “Avg 2 h Coupled Exchange IC50” value in test [3] was 6 nM.
On the same counts, the results for `Cc1c(Cl)cc2cn[nH]c2c1-c1ccc2c(N3C[C@H]4CC[C@@H](C3)N4)nc(OC[C@@]34CCCN3C[C@H](F)C4)nc2c1F` [Example 165, 4-((1R,5S)-3,8-diazabicyclo[3.2.1]octan-3-yl)-7-(5-chloro-6-methyl-1H-indazol-7-yl)-8-fluoro-2-(((2R,7aS)-2-fluorotetrahydro-1H-pyrrolizin-7a(5H)-yl)methoxy) quinazoline] are 27 nM, 3280 nM, 4430 nM and 11 nM.
